Columns and labels:
[1] = biological target: isolated 20S proteasome (Homo sapiens, UniProt P28074); experiment: Proteasome activity using isolated proteasome (chymotrypsin-like activity, MCA liberation); type: biochemical; design: unit of the concentration uncertain; conditions: relative to DMSO control (0 (unit uncertain) = 100%), mean of 3 independent tests
From the text: The method used herein to investigate the proteasome stimulating activity of a substance is based on the measurement of the 20S proteasome core activity. To detect this activity, the isolated 20S proteasome reacts with an oligopeptide, which is bound to a fluorochrome. With its chymotrypsin-like proteolytic activity, the proteasome degrades the oligopeptide and liberates the fluorochrome. For this assay 4-methyl-coumaryl-amide (MCA) was used as fluorochrome. Liberation of MCA correlates linearly with the proteasome activity. MCA was detected using an excitation of 360 nm and an emission of 460 nm.
For interpretation, the measured proteasome activities/intensities of fluorescence were compared with pure MCA standards at distinct concentrations.
Two different controls were used for each assay. One “ordinary” control (C) which consisted of isolated proteasome alone, and a DMSO-control (DC). DC was necessary because all substances were diluted in DMSO. Proteasome activity was calculated relative to DMSO control (0 mM).

[2] = system: proteasome in HaCaT cell lysate; experiment: Proteasome activity using cell lysates of HaCaT cells (MCA liberation); type: biochemical, human; design: unit of the concentration uncertain; conditions: HaCaT cellular extracts, relative to DMSO control (0 (unit uncertain) = 100%), mean of 3 independent tests
Procedure: To determine proteasome activity in cell lysate, human keratinocyte cell lines (HaCaT cells) were seeded out in Petri-dishes (area: 22.1 cm^2) and harvested when they reached confluence. Isolation of the pure cell lysate included cell washing, incubation and homogenization in lysis buffer (250 mM sucrose, 25 mM HEPES (4-(2-hydroxyethyl)-1-piperazineethanesulfonic acid), 10 mM MgCl2*6H2O, 1.3 mM EDTA) and final cell lysis with liquid nitrogen. Determination of proteasome activity is based on the liberation of MCA and the corresponding fluorescence like described above in example 3.1. Proteasome activity was calculated relative to DMSO control (0 mM).

[3] = system: yeast; conditions: cited from earlier work
[4] = system: fish; conditions: cited from earlier work

SMILES: CC(C)NC(=O)O[C@@H]1C[C@H](C)CC[C@H]1C(C)C [BIO1272, Isopropyl-carbamic acid (1R,2S,5R)-2-isopropyl-5-methylcyclohexyl ester]
- Relative proteasome activity ([1]; 5 (unit uncertain)): 125%
- Relative proteasome activity ([1]; 10 (unit uncertain)): 210%
- Relative proteasome activity ([1]; 20 (unit uncertain)): 250%
- Relative proteasome activity ([2]; 5 (unit uncertain)): 105%
- Relative proteasome activity ([2]; 10 (unit uncertain)): 120%
- Relative proteasome activity ([2]; 20 (unit uncertain)): 140%

SMILES: Oc1ccc(C=Cc2cc(O)cc(O)c2)cc1 [Resveratrol]
- Extension of lifespan [3]: 70%
- Extension of lifespan [4]: 60%

Reference: patent publication US20110294876A1, “CYCLOHEXYL CARBAMATE COMPOUNDS AS ANTI-AGEING ACTIVES” (SYMRISE AG, priority 2010, published 2011)
